Starred links: 1 amine or outer side, 2 acyl side, 3 side chain; linkers in the order of their positions; H or OH if unused. Residues, ends and D or L forms follow the SMILES beside them. Groups on a side chain read outwards from the residue. *: point of attachment. TTDA(Palmitoyl) = CCCCCCCCCCCCCCCC(=O)NCCCOCCOCCOCCCN*; Suc = O=C(CCC(=O)[*:2])[*:1]
System: urinary metabolites
Experiment: NMR-based metabolomics of urine of DIO mice
Assay type: in vivo, C57BL/6 mice
Design: key to DMA, Mean / DMG, Mean / MA, Mean / TMA, Mean / acetate, Mean / allantoin, Mean / carnitine, Mean / choline, Mean / cis-aconitate, Mean / creatine+creatinine, Mean / creatine, Mean / creatinine, Mean / ethanolamine, Mean / formate, Mean / galactose, Mean / glucose, Mean / glycine, Mean / lactate, Mean / succinate, Mean / vinylacetylglycine, Mean: TSA-normalized intensity of the metabolite's representative NMR signal
Protocol: Urine samples for NMR-based metabolomics were collected prior to the start of the interventions and at the end of the experiment. For overnight urine collection (from 5 pm to 8 am), the mice were housed in individual metabolic cages (Tecniplast, Buguggiate, Italy) without access to food. Samples were collected with the addition of NaN3 and stored at -80°C until NMR analysis.
The urine samples were thawed at room temperature and centrifuged at 13 684 x g for 5 min prior to the NMR experiments. A 200-μl aliquot of supernatant was diluted with 340 μl of H2O mixed with 60 μl of phosphate buffer (1.5 M KH2PO4 in D2O containing 2 mM NaN3 and 0.1% trimethylsilyl propionic acid (TSP), pH 7.4) and transferred to a 5-mm NMR tube. The NMR data were acquired with a 600 MHz Bruker Avance III spectrometer (Bruker BioSpin, Rheinstetten, Germany) equipped with a 5-mm TCI cryogenic probe head. All of the experiments were performed at 300 K. Automatic tuning, matching, shimming and adjusting of the 90° pulse length were performed for each sample.
As mouse urine naturally contains urinary proteins, the NMR spectra were acquired using a Carr-Purcell-Meiboom-Gill (CPMG) pulse sequence with water presaturation (Bruker pulse sequence cpmgpr1d) to eliminate the strong protein background. […] For better metabolite identification, a short J-resolved experiment with presaturation (NS = 2, SW = 16 ppm, TD = 8k, number of increments = 40, SW = 78.125 Hz in the indirect dimension, and relaxation delay = 2 s) was executed for all samples. Additional two-dimensional ^1H-^1H correlation spectroscopy (COSY) and ^1H-^13C heteronuclear multiple-quantum correlation (HMQC) experiments (Bruker pulse sequences cosygpprqf and hmqcphpr) were performed for selected samples.
The acquired data were processed using Topspin 3.2 software (Bruker BioSpin, Rheinstetten, Germany). Line broadening of 0.3 Hz was applied on free induction decays (FIDs) prior to Fourier transformation. The spectra were automatically phased, baseline corrected and referenced to the signal of TSP (0.00 ppm).
The assignment of individual metabolites was achieved by comparing the proton spectra with the spectra of pure metabolites using Chenomx NMR Suite 7.6 (Chenomx Inc., Edmonton, AB, Canada), the HMDB database and previously published metabolomic data. The identification of metabolites was supported through J-resolved and COSY experiments and, if possible, confirmed using carbon chemical shifts extracted from the HMQC spectra.
For quantitation of individual metabolites, the CPMG spectra were uniformly binned in the range of 0.10–10.00 ppm to 0.01-ppm intervals using AMIX software (Bruker BioSpin, Rheinstetten, Germany). This procedure reduced the dimensionality of the data, eliminated chemical shift variations and thus simplified the reproducible automatic quantification. Regions corresponding to water (4.60–4.90 ppm) and urea (5.60–6.00 ppm) were removed prior to analysis. As the dilutions of the original urine samples differed (due to the differences in water intake during urine collection), all of the spectra were normalized to the total spectral area (TSA). For each identified metabolite, one representative signal was chosen and then quantified as the sum of appropriate adjacent 0.01-ppm bins to cover the whole signal width. The metabolite concentration was expressed as the TSA-normalized intensity of the respective signal. For selection of an appropriate statistical method (parametric or non-parametric) the Lilliefors test of normality was performed. […] Metabolite alterations with a P < 0.05 were considered statistically significant. Statistical analysis was performed using Matlab software (“MATLAB version 8.6 (R2015b). Natick, Massachusetts: The MathWorks Inc., 2015.,” n.d.). […]

[1] = urine NMR signal, DIO mice, group mean
[2] = urine of DIO mice, NMR metabolomics, difference of analog mean vs saline mean

CCCCCCCCCCCCCCCC(=O)NCCCOCCOCCOCCCNC(=O)CCC(=O)NCCCC[C@H](NC(=O)[C@@H](NC(=O)[C@H](CCC(=O)O)NC(=O)[C@H](CCSC)NC(=O)[C@H](CO)NC(=O)[C@H](Cc1c[nH]cn1)NC(=O)[C@H](CCCNC(=N)N)NC(=O)[C@H](Cc1c[nH]cn1)NC(=O)[C@@H](NC(=O)[C@H](CCCNC(=N)N)NC(=O)[C@H](CO)NC(=O)CCC(=O)NCCCOCCOCCOCCCNC(=O)CCCCCCCCCCCCCCC)[C@@H](C)O)[C@@H](C)CC)C(=O)N[C@H](C(=O)N1CCC[C@H]1C(=O)N[C@@H](CC(=O)O)C(=O)N[C@H](C(=O)N[C@@H](CC(N)=O)C(=O)N1CCC[C@H]1C(=O)N[C@@H](C)C(=O)N[C@@H](Cc1c[nH]c2ccccc12)C(=O)N[C@@H](Cc1ccc(O)cc1)C(=O)N[C@@H](C)C(=O)N[C@@H](CO)C(=O)N[C@@H](CCCNC(=N)N)C(=O)NCC(=O)N[C@H](C(=O)N[C@@H](CCCNC(=N)N)C(=O)N1CCC[C@H]1C(=O)N[C@H](C(=O)NCC(=O)N[C@@H](CCCNC(=N)N)C(=O)N[C@@H](Cc1ccccc1)C(N)=O)C(C)C)[C@@H](C)CC)[C@@H](C)CC)[C@@H](C)O [analog 3] ({TTDA(Palmitoyl)-Suc}-SRTHRHSMEIK([Suc-TTDA(Palmitoyl)])TPDINPAWYASRGIRPVGRF-NH2)
2-OG (2.45 ppm), Mean [1]: 11.878
2-OG (3.01 ppm), Mean [1]: 10.469
2-PY (8.33 ppm), Mean [1]: 1.098
3-indoxylsulfate (7.51 ppm), Mean [1]: 1.344
3-indoxylsulfate (7.71 ppm), Mean [1]: 0.810
4-PY (7.97 ppm), Mean [1]: 2.017
4-PY (8.55 ppm), Mean [1]: 0.633
DMA, Mean [1]: 5.618
DMG, Mean [1]: 1.853
MA, Mean [1]: 3.016
MNA (8.90 ppm), Mean [1]: 0.487
MNA (8.97 ppm), Mean [1]: 0.470
MNA (9.265 ppm), Mean [1]: 0.490
MNA-Nox (7.75 ppm), Mean [1]: 0.972
MNA-Nox (8.13 ppm), Mean [1]: 0.792
MNA-Nox (8.49 ppm), Mean [1]: 0.511
MNA-Nox (8.75 ppm), Mean [1]: 0.485
N-carbamoylalanine (2.38 ppm), Mean [1]: 11.854
N-carbamoylalanine (3.31 ppm), Mean [1]: 9.499
N-isovalerylglycine + oxovalerate (0.92 ppm), Mean [1]: 16.056
TMA, Mean [1]: 11.780
acetate, Mean [1]: 3.429
allantoin, Mean [1]: 22.447
carnitine, Mean [1]: 6.067
choline, Mean [1]: 1.970
cis-aconitate, Mean [1]: 8.481
citrate (2.55 ppm), Mean [1]: 29.434
citrate (2.69 ppm), Mean [1]: 26.220
creatine+creatinine, Mean [1]: 24.904
creatine, Mean [1]: 7.343
creatinine, Mean [1]: 11.686
ethanolamine, Mean [1]: 8.370
formate, Mean [1]: 0.199
fumarate, Mean [1]: 0.151
galactose, Mean [1]: 0.578
glucose, Mean [1]: 3.207
glycine, Mean [1]: 5.874
hexanoylglycine + acids (0.88 ppm), Mean [1]: 15.361
hippurate (7.55 ppm), Mean [1]: 3.987
hippurate (7.64 ppm), Mean [1]: 2.057
hippurate (7.84 ppm), Mean [1]: 4.311
lactate, Mean [1]: 6.853
multiplet acids (1.6 ppm), Mean [1]: 12.521
putrescin, Mean [1]: 8.726
succinate, Mean [1]: 9.267
taurine (3.27 ppm), Mean [1]: 24.146
taurine (3.43 ppm), Mean [1]: 20.508
trigonelline (8.84 ppm), Mean [1]: 0.263
trigonelline (9.13 ppm), Mean [1]: 0.106
vinylacetylglycine, Mean [1]: 3.527
2-OG (2.45 ppm), Saline/analog % [2]: 0.010%
2-OG (3.01 ppm), Saline/analog % [2]: 0.022%
2-PY (8.33 ppm), Saline/analog % [2]: -0.056%
3-indoxylsulfate (7.51 ppm), Saline/analog % [2]: 0.032%
3-indoxylsulfate (7.71 ppm), Saline/analog % [2]: 0.052%
4-PY (7.97 ppm), Saline/analog % [2]: 0.115%
4-PY (8.55 ppm), Saline/analog % [2]: 0.091%
DMA, Saline/analog % [2]: 0.119%
N-carbamoylalanine (2.38 ppm), Saline/analog % [2]: 0.101%
N-carbamoylalanine (3.31 ppm), Saline/analog % [2]: 0.00116%
N-isovalerylglycine + oxovalerate (0.92 ppm), Saline/analog % [2]: 0.108%
TMA, Saline/analog % [2]: -0.031%
acetate, Saline/analog % [2]: -0.087%
allantoin, Saline/analog % [2]: 0.112%
carnitine, Saline/analog % [2]: 0.019%
choline, Saline/analog % [2]: -0.000203%
cis-aconitate, Saline/analog % [2]: -0.045%
citrate (2.55 ppm), Saline/analog % [2]: -0.096%
citrate (2.69 ppm), Saline/analog % [2]: -0.120%
creatine+creatinine, Saline/analog % [2]: 0.092%

Source: publication PMC5562305, “Impact of novel palmitoylated prolactin-releasing peptide analogs on metabolic changes in mice with diet-induced obesity” (PLoS ONE, 2017)
